According to patent US6355799B1, “Substituted benzene compounds, process for their preparation, and herbicidal and defoliant compositions containing them” (ISK Americas Incorporated, priority 1997, dated 2002):

Columns and labels:
Type in all cases: in vivo
[1] = test system: upland rice (Oryza sp., var. Tebonnet, RICE); test: Pre-emerge test, crop safety; settings: crop damage rating 0-100, 14 days after application
In short: (§1)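 Plants grown in 10 cm pots of sandy loam mix received acetone-dissolved compounds through a moving flat-fan nozzle. Doses ranged from 15 to 1000 g ai/ha. Pre-emerge pots were seeded one day earlier, post-emerge pots 8–21 days earlier. Fourteen days on, each pot was graded 0–100 for damage.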

[2] = test system: field corn (Zea mays L., var. Dekalb 535, CORN); test: Pre-emerge test, crop safety; settings: crop damage rating 0-100, 14 days after application
In short: as §1

[3] = test system: upland rice (Oryza sp., var. Tebonnet, RICE); test: Post-emerge test, crop safety; settings: post-emerge, 14 days after application, rating scale 0-100
In short: (§2)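 Compounds in acetone were track-sprayed at 187 l/ha, 15–1000 g ai/ha, onto sandy loam pots. Pre-emerge seeds were sown one day before spraying, with surface watering afterwards. Post-emerge plants were at the 2–3 leaf stage and sprayed with 0.25% v/v non-ionic surfactant. Injury was rated 0–100 at 14 days.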

[4] = test system: field corn (Zea mays L., var. Dekalb 535, CORN); test: Post-emerge test, crop safety; settings: post-emerge, 14 days after application, rating scale 0-100
In short: as §2

[5] = test system: redroot pigweed (Amaranthus retroflexus, AMARE); test: Pre-emerge test, greenhouse herbicide activity screening; settings: phytotoxicity rating 0-100, 14 days after application
In short: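 Rating: 0–100 visual injury, 14 DAA. Application: acetone, 187 l/ha, 15–1000 g ai/ha, flat-fan track sprayer with nozzle 40–45 cm above soil or canopy. Post-emerge runs used 0.25% v/v surfactant on 2–3 leaf plants.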

[6] = test system: redroot pigweed (Amaranthus retroflexus, AMARE); test: Post-emerge test, greenhouse herbicide activity screening; settings: post-emerge, 14 days after application
Excerpt: (§3) A standard greenhouse herbicide activity screening system was used to evaluate the herbicidal efficacy and crop safety of these test compounds. Seven broadleaf weed species including redroot pigweed (Amaranthus retroflexus, AMARE, velvetleaf (Abutilon theophrasti, ABUTH), sicklepod (Cassia obtusifolia, CASOB), ivyleaf morningglory (Ipomoea hederacea, IPOHE), lambsquarters (Chenopodium album, CHEAL), common ragweed (Ambrosia artemisizfolia L., AMBEL), and cocklebur (Xanthium strumarium, XANST) were used as test species. Four grass weed species including green foxtail (Setaria viridis, SETVI), barnyardgrass (Echinochloa crus-galli, ECHCG), johnsongrass (Sorghum halepense, SORHA), and large crabgrass (Digitaria sanguinalis, DIGSA) were also used. In addition, three crop species, field corn (Zea mays L., var. Dekalb 535, CORN), soybean (Glycine max L., var. Pella 86, SOY), and is upland rice (Oryza sp., var. Tebonnet, RICE) were included.
(§4) All plants were grown in 10 cm square plastic pots which were filled with a sandy loam soil mix. For pre-emerge tests, seeds were planted one day prior to application of the test compounds. For post-emerge tests, seeds were planted 8-21 days prior to the test to allow emergence and good foliage development prior to application of the test substances. At the time of the post-emerge application, plants of all species were usually at the 2-3 leaf stage of development.
(§5) All test compounds Were dissolved in acetone and applied to the test units in a volume of 187 l /ha. Test materials were applied at rates ranging from 15 g ai/ha to 1000 g ai/ha using a track sprayer equipped with a TJ8001E even flow flat fan spray nozzle. Plants were arranged on a shelf so that the top of the canopy (post-emerge) or top of the soil surface (pre-emerge) was 40-45 cm below the nozzle. Pressurized air was used to force the test solution through the nozzle as it was mechanically advanced (via electrically driven chain drive) over the top of all test plants/pots. This application simulates a typical commercial field herbicide application.
(§6) In the post-emerge test, a commercial non-ionic surfactant was also included (0.25% v/v) to enhance wetting of the leaf surfaces of target plants. Immediately after application, test units of the pre-emerge applications were watered at the soil surface to incorporate the test materials. Subsequently, these test units were bottom-watered. Post-emerge test units were always bottom-watered.
(§7) At 14 days after application of the test materials, phytotoxicity ratings were recorded. A rating scale of 0-100 was used as previously described in Research Methods in Weed Science, 2nd edition, B. Truelove, Ed., Southern Weed Science Society, Auburn University, Auburn, Ala. 1977. Briefly, “0” corresponds to no damage and “100” corresponds to complete death of all plants in the test unit. This scale was used both to determine efficacy against weed species and damage to crop species. Herbicide activity data for various compounds of this invention, which are shown by compound No. in Tables 1-8, are shown in Tables 11 and 12.

[7] = test system: large crabgrass (Digitaria sanguinalis, DIGSA); test: as above; settings: post-emerge, 14 days after application, rating scale 0-100
Excerpt: as §3, §4, §5, §6, §7

[8] = test system: ivyleaf morningglory (Ipomoea hederacea, IPOHE); test: as above; settings: post-emerge, 14 days after application, rating scale 0-100
Excerpt: as §3, §4, §5, §6, §7

[9] = test system: barnyardgrass (Echinochloa crus-galli, ECHCG); test: as above; settings: post-emerge, 14 days after application, rating scale 0-100
Excerpt: as §3, §4, §5, §6, §7

[10] = test system: green foxtail (Setaria viridis, SETVI); test: as above; settings: post-emerge, 14 days after application, rating scale 0-100
Excerpt: as §3, §4, §5, §6, §7

[11] = test system: lambsquarters (Chenopodium album, CHEAL); test: as above; settings: post-emerge, 14 days after application, rating scale 0-100
Excerpt: as §3, §4, §5, §6, §7

[12] = test system: velvetleaf (Abutilon theophrasti, ABUTH); test: as above; settings: post-emerge, 14 days after application, rating scale 0-100
Excerpt: as §3, §4, §5, §6, §7

[13] = test system: sicklepod (Cassia obtusifolia, CASOB); test: as above; settings: post-emerge, 14 days after application, rating scale 0-100
Excerpt: as §3, §4, §5, §6, §7

[14] = test system: large crabgrass (Digitaria sanguinalis, DIGSA); test: Pre-emerge test, greenhouse herbicide activity screening; settings: phytotoxicity rating 0-100, 14 days after application
Excerpt: as §3, §4, §5, §6, §7

[15] = test system: ivyleaf morningglory (Ipomoea hederacea, IPOHE); test: as above; settings: phytotoxicity rating 0-100, 14 days after application
Excerpt: as §3, §4, §5, §6, §7

[16] = test system: barnyardgrass (Echinochloa crus-galli, ECHCG); test: as above; settings: phytotoxicity rating 0-100, 14 days after application
Excerpt: as §3, §4, §5, §6, §7

[17] = test system: green foxtail (Setaria viridis, SETVI); test: as above; settings: phytotoxicity rating 0-100, 14 days after application
Excerpt: as §3, §4, §5, §6, §7

[18] = test system: lambsquarters (Chenopodium album, CHEAL); test: as above; settings: phytotoxicity rating 0-100, 14 days after application
Excerpt: as §3, §4, §5, §6, §7

[19] = test system: velvetleaf (Abutilon theophrasti, ABUTH); test: as above; settings: phytotoxicity rating 0-100, 14 days after application
Excerpt: as §3, §4, §5, §6, §7

[20] = test system: sicklepod (Cassia obtusifolia, CASOB); test: as above; settings: phytotoxicity rating 0-100, 14 days after application
Excerpt: as §3, §4, §5, §6, §7

Structure (SMILES): COc1c(Cl)cc(F)c(-n2c(=O)cc(C(F)(F)F)n(C)c2=O)c1NC(=O)OCc1ccc(OC(F)(F)F)cc1 [4-45]
- Pre-emerge Herbicidal Activity RICE ([1]; 63 g ai/ha): 0
- Pre-emerge Herbicidal Activity RICE ([1]; 250 g ai/ha): 10
- Pre-emerge Herbicidal Activity CORN ([2]; 63 g ai/ha): 0
- Pre-emerge Herbicidal Activity CORN ([2]; 250 g ai/ha): 20
- phytotoxicity rating RICE (crop damage) ([3]; 63 g ai/ha): 10
- phytotoxicity rating RICE (crop damage) ([3]; 250 g ai/ha): 20
- phytotoxicity rating CORN (crop damage) ([4]; 63 g ai/ha): 10
- phytotoxicity rating CORN (crop damage) ([4]; 250 g ai/ha): 20
- Pre-emerge Herbicidal Activity AMARE ([5]; 63 g ai/ha): 30
- Pre-emerge Herbicidal Activity AMARE ([5]; 250 g ai/ha): 100
- phytotoxicity rating AMARE ([6]; 63 g ai/ha, rating scale 0-100 (0 no damage, 100 complete death)): 90
- phytotoxicity rating AMARE ([6]; 250 g ai/ha, rating scale 0-100): 95
- phytotoxicity rating DIGSA ([7]; 63 g ai/ha): 10
- phytotoxicity rating DIGSA ([7]; 250 g ai/ha): 20
- phytotoxicity rating IPOHE ([8]; 63 g ai/ha): 95
- phytotoxicity rating IPOHE ([8]; 250 g ai/ha): 100
- phytotoxicity rating ECHCG ([9]; 63 g ai/ha): 20
- phytotoxicity rating ECHCG ([9]; 250 g ai/ha): 20
- phytotoxicity rating SETVI ([10]; 63 g ai/ha): 30
- phytotoxicity rating SETVI ([10]; 250 g ai/ha): 60
- phytotoxicity rating CHEAL ([11]; 63 g ai/ha): 100
- phytotoxicity rating CHEAL ([11]; 250 g ai/ha): 100
- phytotoxicity rating ABUTH ([12]; 63 g ai/ha): 100
- phytotoxicity rating ABUTH ([12]; 250 g ai/ha): 100
- phytotoxicity rating CASOB ([13]; 63 g ai/ha): 80
- phytotoxicity rating CASOB ([13]; 250 g ai/ha): 80
- Pre-emerge Herbicidal Activity DIGSA ([14]; 63 g ai/ha): 0
- Pre-emerge Herbicidal Activity DIGSA ([14]; 250 g ai/ha): 70
- Pre-emerge Herbicidal Activity IPOHE ([15]; 63 g ai/ha): 10
- Pre-emerge Herbicidal Activity IPOHE ([15]; 250 g ai/ha): 40
- Pre-emerge Herbicidal Activity ECHCG ([16]; 63 g ai/ha): 0
- Pre-emerge Herbicidal Activity ECHCG ([16]; 250 g ai/ha): 40
- Pre-emerge Herbicidal Activity SETVI ([17]; 63 g ai/ha): 0
- Pre-emerge Herbicidal Activity SETVI ([17]; 250 g ai/ha): 50
- Pre-emerge Herbicidal Activity CHEAL ([18]; 63 g ai/ha): 50
- Pre-emerge Herbicidal Activity CHEAL ([18]; 250 g ai/ha): 95
- Pre-emerge Herbicidal Activity ABUTH ([19]; 63 g ai/ha): 50
- Pre-emerge Herbicidal Activity ABUTH ([19]; 250 g ai/ha): 90
- Pre-emerge Herbicidal Activity CASOB ([20]; 63 g ai/ha): 0
- Pre-emerge Herbicidal Activity CASOB ([20]; 250 g ai/ha): 40
